The source of these data is patent US8119683B2, “Aryl substituted sulfonamide compounds and their use as anticancer agents” (Taipei Medical University, priority 2009, dated 2012).

Data set [1] has as its system Human oral epidermoid carcinoma KB cells. The data set can be described thus: Cell growth inhibition assay (methylene blue dye), KB cells. Format: cell-based. The procedure: (§1) Anticancer activities of the aryl substituted sulfonamide compounds synthesized in the above examples were evaluated by testing their inhibitory effects on mammalian cancer cell growth.
(§2) Human oral epidermoid carcinoma KB cells, non small cell lung carcinoma H460 cells, colorectal carcinoma HT29 cells, and stomach carcinoma MKN45 cells were maintained in RPMI-1640 medium supplied with 5% fetal bovine serum. The cells were treated with the test compound at various concentrations for 72 h.

Data set [2] concerns non small cell lung carcinoma H460 cells. Description: Cell growth inhibition assay (methylene blue dye), H460 cells. Format: cell-based. To be noted: Homo sapiens, NCI-H460, 72 h, read-out: Cell type (IC50 ± SD, nM) H460 (lung). The procedure: as §1, §2
In data set [3] the test system is stomach carcinoma MKN45 cells. Description: Cell growth inhibition assay (methylene blue dye), MKN45 cells. Format: cell-based. To be noted: Homo sapiens, MKN-45, 72 h, read-out: Cell type (IC50 ± SD, nM) MKN45 (stomach). On the procedure: as §1, §2
For data set [4], the system named is non-small-cell lung cancer A549 cells. The data set can be described thus: Cell growth inhibition assay, A549 cells. Format: cell-based. The conditions noted are these: Homo sapiens. The procedure:
(§3) Human oral epidermoid carcinoma KB cells, non small cell lung carcinoma H460 cells, colorectal carcinoma HT29 cells, and stomach carcinoma MKN45 cells were maintained in RPMI-1640 medium supplied with 5% fetal bovine serum. The cells were treated with the test compound at various concentrations for 72 h. The effect of the test compound on cell growth was evaluated using a methylene blue dye assay similar to that described in Baguley et al., Anal Biochem, 1984, 139: 272-277. […] Compounds 16, 17, and 24 were tested on these three cell lines using methylene blue dye assay. ABT-751 was used as positive control (which was synthesized with the method described in Yoshino et al., J. Med. Chem. 1992, 35, 2496-2497; descriptions of ABT-751 can also be found in Koyanagi et al., Cancer Res. 1994, 54, 1702-1706; Yee et al., Cancer Res. 2005, 11, 6615-6624; and Mauer, et al., J. Thorac. Oncol. 2008, 3, 613-636).
(§4) Further, Compound 24 was tested on non-small-cell lung cancer A549 and H1299 cells, colorectal carcinoma HT29, and normal human umbilical vein endothelial cells (HUVECs).

For data set [5], the system named is non-small-cell lung cancer H1299 cells. Description: Cell growth inhibition assay, H1299 cells. Format: cell-based. The conditions noted are these: Homo sapiens, NCI-H1299. On the procedure:
as §3, §4

Data set [6] concerns colorectal carcinoma HT29 cells. Description: Cell growth inhibition assay, HT29 cells. Format: cell-based. The conditions noted are these: Homo sapiens, HT-29. On the procedure: as §3, §4
The subject of data set [7] is normal human umbilical vein endothelial cells (HUVECs). The data set can be described thus: Cell growth inhibition assay, normal HUVECs. Format: cell-based. To be noted: HUVEC. On the procedure:
as §3, §4

Another data set concerns KB-VIN10 cells. Description: Cell growth inhibition assay on multidrug resistant KB-VIN10 cells. Format: cell-based. The conditions noted are these: Homo sapiens. The procedure:
(§5) Cell in logarithmic phase were cultured at a density of 5000 cells/mL/well in a 24-well plate. KB-VIN10 cells were cultured in a medium free of test compound for 3 days prior to use. The cells were treated with the test compound at various concentrations for 72 h. The effect of the test compound on cell growth was evaluated using the methylene blue dye assay. […] KB-CPT100 and KB-CPT300 cells were generated by camptothecin-driven selection. […] (See Liou, J. P. et al J. Med. Chem. 2004, 47, 4247-4257 and Kuo, C. C. et al. Cancer Res. 2004, 64, 4621-4628.) Anticancer activities of the aryl substituted sulfonamide compounds synthesized in the above examples were evaluated by testing their inhibitory effects on these drug-resistant cell lines. Compound 24 was tested in this assay.

A further data set has as its system KB-TAX50 cells. Description: Cell growth inhibition assay on drug-resistant KB-TAX50 cells. Format: cell-based. To be noted: Homo sapiens; KB-TAX50, Paclitaxel resistance. On the procedure:
as §5, with “dye assay. […] Compounds 16 and 24 were tested in this” for “dye”

The test system of another data set is KB-7D cells. Description: Cell growth inhibition assay on drug-resistant KB-7D cells. Format: cell-based. The conditions noted are these: Homo sapiens, KB7D, Etoposide resistance. On the procedure: as §5, with “dye assay. […] Compounds 16 and 24 were tested in this” for “dye”
In a further data set the test system is KB-L30 cells. The data set can be described thus: Cell growth inhibition assay on drug-resistant KB-L30 cells. Format: cell-based. The conditions noted are these: Homo sapiens; KB-L30, BPR0L075 resistance. On the procedure:
as §5, with “dye assay. […] Compounds 16 and 24 were tested in this” for “dye”

A further data set has as its system KB-CPT100 cells. Description: Cell growth inhibition assay on drug-resistant KB-CPT100 cells. Format: cell-based. The conditions noted are these: Homo sapiens, KBCPT100; KB-CPT100, Camptothecin resistance. On the procedure:
as §5, with “dye assay. […] Compounds 16 and 24 were tested in this” for “dye”

The subject of a further data set is KB-CPT300 cells. Description: Cell growth inhibition assay on drug-resistant KB-CPT300 cells. Format: cell-based. The conditions noted are these: Homo sapiens; KB-CPT300, Camptothecin resistance. On the procedure: as §5, with “dye assay. […] Compounds 16 and 24 were tested in this” for “dye”
In data set [8] the test system is Human umbilical vein endothelial cells (HUVECs). The data set can be described thus: Cellular network (tube) formation inhibition assay. Format: cell-based. On the procedure: (i) Cellular Network Formation Inhibition Assay
Each well of a 96-well plate was coated with an extracellular matrix containing collagen for 1 hr to allow the gel to solidify. Human umbilical vein endothelial cells (HUVECs) suspension was prepared at a concentration of 1×10^5 cells/mL in M199 medium supplemented with endothelial cell growth supplements with 20% FBS. Then, 100 μl of the cell suspension was added to each gel-coated well of the plate. Cells were incubated with or without a test compound for 18 hrs at 37° C. Without the test compound, a cellular network structure was fully developed after 12-18 hrs of incubation. The number of tubes formed was counted using light microscopy at 200× magnification.

The test system of the next data set is VEGF165. Description: VEGF production inhibition assay (ELISA). Format: cell-based. The conditions noted are these: Homo sapiens, medium of the HUVEC network assay. On the procedure: (ii) VEGF Production Inhibition Assay
The medium of assay (i) above was collected. VEGF165 levels were measure by ELISA. In brief, a monoclonal antibody specific for VEGF was pre-coated onto a microplate. A control cell culture medium and the medium of assay (i) were added into the wells and any VEGF present was bound to the wells by the immobilized antibody. After washing away any unbound substances, an enzyme-linked polyclonal antibody specific for VEGF was added to the wells. Following a wash to remove any unbound antibody-enzyme reagent, a substrate solution was added to the wells and color developed in proportion to the amount of VEGF bound in the initial step. The color development was stopped and the intensity of the color was measured.
A general note: An ELISA detects its analyte on a solid surface through an enzyme-linked reagent.

Data set [9] has as its system CD31-positive cells in tumor tissue (microvessel density). The data set can be described thus: Anti-vascular activity, CD31 immunofluorescence staining in tumor tissues. Format: in vivo. More on the design: dose or concentration left out as unconfirmed. The conditions noted are these: tumor tissue from mice. The procedure: Anti-vascular activities of the aryl substituted sulfonamide compounds were evaluated by immunofluorescence staining in tumor tissues.
Rat anti-mouse CD31 antibodies were purchased from BD Biosciences. Tumor tissue samples were harvested from mice in both the control and test compound-treated groups. Frozen sections were fixed with acetone and chloroform. To block nonspecific proteins, each sample was incubated in 4.5% fish gelatin (BB International Co.) for 20 min. Expression of CD31 was detected in blood vessels using rat anti-mouse CD31 as the primary antibody and TexasRed (Jackson) labeled-goat anti-rat IgG antibody as the secondary antibody. The mean microvessel density (MVD) was determined by first counting and then averaging the number of CD31-positive cells in five random high power microscopic fields from different tumor samples.

In data set [10] the test system is drug-resistant cell lines (KB-VIN10, KB-TAX50, KB-7D, KB-CPT100, KB-CPT300, KB-L30). The data set can be described thus: Growth inhibition on the drug-resistant KB cell lines (summary over the lines). Format: cell-based. The conditions noted are these: Homo sapiens, summary of Table 3, read-out: IC50 values on the drug-resistant cell lines (range over lines). On the procedure:
as §5, with “dye assay. […] Compounds 16 and 24 were tested in this” for “dye”

Structures are written as SMILES. Where two headings read alike, the source gives them in different places. Where only a bound is given, the exact number is not on record here.

As a reminder, the inhibition is the percentage by which the read-out fell short of the control. What is called melting point is the temperature, or range, at which the solid turns liquid. `COc1ccc(S(=O)(=O)N2CCc3cccc(-c4ccncc4)c32)cc1` [Compound 24, 1-(4-methoxy-benzenesulfonyl)-7-pyridin-4-yl-2,3-dihydro-1H-indole] displayed a melting point of 195.9 to 196.8 °C. Moreover, in [1] (KB (Parental), Table 3, read-out: Growth Inhibition (IC50)), the IC50 is 96 ± 14.1 nM. In [1] (KB cells, 72 h, methylene blue dye assay, read-out: Cell type (IC50 ± SD, nM) KB (oral)), the IC50 came to 96 ± 14.1 nM. Further, the IC50 in [1] (KB cells, bands, read-out: IC50, inhibiting proliferation of KB cells (band)) was in the range of 1 to 99 nM. Besides, the IC50 in [2] was determined as 101 ± 8 nM. Moreover, the IC50 in data set [3] amounted to 69.5 ± 7.6 nM. In addition, the IC50 in data set [4] was 150 ± 8.5 nM. This compound returned an IC50 in data set [5] of 132 ± 13.7 nM. The IC50 in data set [6] came to 201 ± 13.9 nM. This compound had an IC50 in data set [7] of 510 ± 22.2 nM. Also, in the data set with KB-VIN10 cells (KB-VIN10 (P-gp170/MDR overexpression), 72 h, methylene blue, read-out: IC50, growth inhibition of KB-VIN10 cells), the IC50 worked out at 106 nM. Besides, the IC50 in the data set on KB-VIN10 cells (KB-VIN10, Vincristine resistance, read-out: Growth Inhibition (IC50)) is 106 ± 18 nM. The compound further yielded an IC50 with KB-TAX50 cells of 188 ± 25.3 nM. For the same compound, in the data set on KB-7D cells, the IC50 worked out at 257 ± 26.6 nM. Moreover, in the data set with KB-L30 cells, the IC50 came out at 237 ± 26.6 nM. For the same compound, the IC50 in the data set with KB-CPT100 cells amounted to 95 ± 12.1 nM. In the data set on KB-CPT300 cells, the IC50 is 93 ± 15.7 nM. The IC50 in data set [8] (Homo sapiens, HUVEC, 18 hrs, unit inferred) is 500 nM. Also, the “tube formation inhibition” value in data set [8] (at 1.5 (unit not given)) was “completely inhibited tube formation”. The compound further gave an inhibition at 0.5 µM in the data set on VEGF165 of more than 50%. In addition, the “decrease of vascular area compared to the blank control” value in [9] was “five-fold”. Moreover, the IC50 in data set [10] lay in the range of 90 to 250 nM.
